Measurements: patent US20230085307A1, “PYRIDAZINONE COMPOUND AND HERBICIDE” (NISSAN CHEMICAL CORPORATION, priority 2019, published 2023)

Key:
barnyard grass [1] = experiment: Test Example 3: herbicidal effect by foliage application, Wagner pot (Table 18, symbol H); assay type: in vivo, barnyard grass (Echinochloa crus-galli); settings: amount of applied herbicide 320 g/ha
How it was run: (§1)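 Plants were sown in alluvial soil held under 0.1–0.5 cm standing water and grown 14 days in a greenhouse at 25–30 °C. An emulsifiable formulation, water-diluted to the set dose, was then sprayed onto the foliage, and effects were scored three weeks later using previously defined criteria.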

green foxtail [2] = experiment: Test Example 4: herbicidal effect by soil treatment (Table 19, symbol G); assay type: in vivo, green foxtail (Setaria viridis); settings: amount of applied herbicide 320 g/ha
How it was run: (§2)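 Applied as a water-diluted emulsion, the compound was sprayed onto soil covering newly sown seeds. Evaluation came three weeks after application, in a greenhouse held at 25° C. to 30° C.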

green foxtail [3] = experiment: Test Example 5: herbicidal effect by foliage application, plastic box (Table 20, symbol G); assay type: in vivo, green foxtail (Setaria viridis); settings: foliage application, 320 g/ha, three weeks after application
How it was run: (§3)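 Sow seeds spot-wise in sterilized diluvial soil; cover with ~1.5 cm soil. Grow 14 days in greenhouse, 25° C. to 30° C. Spray foliage with emulsion diluted to predetermined amount. Rate effect after 3 weeks.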

oval-leafed pondweed = experiment: Test Example 1: herbicidal activity, application before weed generation under submerged conditions (Table 16, symbol C); assay type: in vivo, oval-leafed pondweed (Monochoria vaginalis); settings: amount of applied herbicide 320 g/ha
How it was run: (§4)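 Submerged Wagner pots (alluvial soil, 4 cm water) sown with weed seeds and planted with 2.5-leaf rice seedlings; emulsifiable concentrate diluted in water applied to water surface on sowing day. Held in greenhouse at 25-30 °C; injury scored 0-5 by herbicidal rate after three weeks.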

windgrass [4] = experiment: Test Example 5: herbicidal effect by foliage application, plastic box (Table 20, symbol L); assay type: in vivo, windgrass (Apera spica-venti); settings: foliage application, 320 g/ha, three weeks after application
How it was run: as §3

velvetleaf = experiment: Test Example 4: herbicidal effect by soil treatment (Table 19, symbol M); assay type: in vivo, velvetleaf (Abutilon theophrasti); settings: amount of applied herbicide 320 g/ha
How it was run: as §2

southern crabgrass = experiment: Test Example 4: herbicidal effect by soil treatment (Table 19, symbol F); assay type: in vivo, southern crabgrass (Digitaria ciliaris); settings: amount of applied herbicide 320 g/ha
How it was run: as §2

rice flat sedge = experiment: Test Example 3: herbicidal effect by foliage application, Wagner pot (Table 18, symbol E); assay type: in vivo, rice flat sedge (Cyperus iria); settings: amount of applied herbicide 320 g/ha
How it was run: as §1

wild oat = experiment: Test Example 5: herbicidal effect by foliage application, plastic box (Table 20, symbol I); assay type: in vivo, wild oat (Avena fatua); settings: foliage application, 320 g/ha, three weeks after application
How it was run: as §3

redroot pigweed = experiment: Test Example 4: herbicidal effect by soil treatment (Table 19, symbol N); assay type: in vivo, redroot pigweed (Amaranthus retroflexus); settings: amount of applied herbicide 320 g/ha
How it was run: as §2

barnyard grass [5] = experiment: Test Example 5: herbicidal effect by foliage application, plastic box (Table 20, symbol H); assay type: in vivo, barnyard grass (Echinochloa crus-galli); settings: foliage application, 320 g/ha, three weeks after application
How it was run: as §3

lambsquarters = experiment: Test Example 5: herbicidal effect by foliage application, plastic box (Table 20, symbol O); assay type: in vivo, lambsquarters (Chenopodium album); settings: foliage application, 320 g/ha, three weeks after application
How it was run: as §3

barnyard grass [6] = experiment: Test Example 4: herbicidal effect by soil treatment (Table 19, symbol H); assay type: in vivo, barnyard grass (Echinochloa crus-galli); settings: amount of applied herbicide 320 g/ha
How it was run: as §2

windgrass [7] = experiment: Test Example 4: herbicidal effect by soil treatment (Table 19, symbol L); assay type: in vivo, windgrass (Apera spica-venti); settings: amount of applied herbicide 320 g/ha
How it was run: as §2

Chinese sprangletop = experiment: Test Example 3: herbicidal effect by foliage application, Wagner pot (Table 18, symbol D); assay type: in vivo, chinese sprangletop (Leptochloa chinensis); settings: amount of applied herbicide 320 g/ha
How it was run: as §1

Japanese bulrush = experiment: Test Example 1: herbicidal activity, application before weed generation under submerged conditions (Table 16, symbol B); assay type: in vivo, Japanese bulrush (Schoenoplectus juncoides); settings: amount of applied herbicide 320 g/ha
How it was run: as §4

persian speedwell = experiment: Test Example 5: herbicidal effect by foliage application, plastic box (Table 20, symbol R); assay type: in vivo, Persian speedwell (Veronica persica); settings: foliage application, 320 g/ha, three weeks after application
How it was run: as §3

SMILES | Herbicidal effect on H (barnyard grass), foliage application (barnyard grass [1]) | G: green foxtail, herbicidal effect grade (green foxtail [2]) | herbicidal effect on green foxtail (G) (green foxtail [3]) | Herbicidal effect, C: oval-leafed pondweed (oval-leafed pondweed) | herbicidal effect on windgrass (L) (windgrass [4]) | M: velvetleaf, herbicidal effect grade (velvetleaf) | F: southern crabgrass, herbicidal effect grade (southern crabgrass) | Herbicidal effect on E (rice flat sedge), foliage application (rice flat sedge) | herbicidal effect on wild oat (I) (wild oat) | N: redroot pigweed, herbicidal effect grade (redroot pigweed) | herbicidal effect on barnyard grass (H) (barnyard grass [5]) | herbicidal effect on lambsquarters (O) (lambsquarters) | H: barnyard grass, herbicidal effect grade (barnyard grass [6]) | L: windgrass, herbicidal effect grade (windgrass [7]) | Herbicidal effect on D (Chinese sprangletop), foliage application (Chinese sprangletop) | Herbicidal effect, B: Japanese bulrush (Japanese bulrush) | herbicidal effect on persian speedwell (R) (persian speedwell)
C=CCOc1ccc(-c2oc3ccccc3c2-c2c(O)c(C)nn(C)c2=O)cc1 [8-004] | 5 (Herbicidal rate of 90% or more (almost completely withered)) | 3 (Herbicidal rate of 40% or more and less than 70%) | 3 (Herbicidal rate of 40% or more and less than 70%) | 4 (Herbicidal rate of 70% or more and less than 90%) | 4 (Herbicidal rate of 70% or more and less than 90%) | 2 (Herbicidal rate of 20% or more and less than 40%) | 4 (Herbicidal rate of 70% or more and less than 90%) | 4 (Herbicidal rate of 70% or more and less than 90%) | 3 (Herbicidal rate of 40% or more and less than 70%) | 5 (Herbicidal rate of 90% or more (almost completely withered)) | 3 (Herbicidal rate of 40% or more and less than 70%) | 3 (Herbicidal rate of 40% or more and less than 70%) | 4 (Herbicidal rate of 70% or more and less than 90%) | 0 (Herbicidal rate of 5% or less (almost no effect)) | 3 (Herbicidal rate of 40% or more and less than 70%) | 5 (Herbicidal rate of 90% or more (almost completely withered)) | 5 (Herbicidal rate of 90% or more (almost completely withered))
Cc1ccc2oc(-c3ccc4c(c3)OCCO4)c(-c3c(O)c(C)nn(C)c3=O)c2c1 [9-012] | 4 (Herbicidal rate of 70% or more and less than 90%) | 3 (Herbicidal rate of 40% or more and less than 70%) | 2 (Herbicidal rate of 20% or more and less than 40%) | 5 (Herbicidal rate of 90% or more (almost completely withered)) | 2 (Herbicidal rate of 20% or more and less than 40%) | 2 (Herbicidal rate of 20% or more and less than 40%) | 2 (Herbicidal rate of 20% or more and less than 40%) | 5 (Herbicidal rate of 90% or more (almost completely withered)) | 0 (Herbicidal rate of 5% or less (almost no effect)) | 3 (Herbicidal rate of 40% or more and less than 70%) | 3 (Herbicidal rate of 40% or more and less than 70%) | 3 (Herbicidal rate of 40% or more and less than 70%) | 2 (Herbicidal rate of 20% or more and less than 40%) | 0 (Herbicidal rate of 5% or less (almost no effect)) | 0 (Herbicidal rate of 5% or less (almost no effect)) | 5 (Herbicidal rate of 90% or more (almost completely withered)) | 5 (Herbicidal rate of 90% or more (almost completely withered))
